Measurements as given in the supplement of paper PMC5908809.

What was measured:
Test in all cases: relative IC50 (inflection point of fitted viability curve, relative to fitted max inhibition); higher = less sensitive
Conditions in all cases: 72 h
[1] = tested on: normal primary NK cells, pool 3 (3 donors) (IL-2 2.5 ng/mL)
Description: (§1)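 Drug sensitivity and resistance testing: 5 concentrations over a 10,000-fold range, 72 h at 37 °C, viability by CellTiter-Glo normalised to DMSO and benzethonium chloride controls. IC50 is the inflection point of a logistic fit (min fixed at 0, max fitted), so it is relative to the fitted maximal inhibition. Kept only where fitted max inhibition is at least 50%.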

[2] = tested on: normal primary NK cells, pool 1 (3 donors), resting (IL-2 0 ng/mL)
Description: as §1

[3] = tested on: normal primary NK cells, pool 1 (3 donors) (IL-2 2.5 ng/mL)
Description: as §1

DERL-7 (IL-2 2.5 ng/mL) = tested on: DERL-7 (IL-2 2.5 ng/mL)
Description: as §1

NKL (IL-2 2.5 ng/mL) = tested on: NKL (IL-2 2.5 ng/mL)
Description: as §1

IMC-1 (IL-2 20 ng/mL) = tested on: IMC-1 (IL-2 20 ng/mL)
Description: as §1

NK-YS (IL-2 2.5 ng/mL) = tested on: NK-YS (IL-2 2.5 ng/mL)
Description: as §1

SNK-6 (IL-2 2.5 ng/mL) = tested on: SNK-6 (IL-2 2.5 ng/mL)
Description: as §1

[4] = tested on: normal primary NK cells, pool 2 (3 donors) (IL-2 2.5 ng/mL)
Description: as §1

YT (IL-2 2.5 ng/mL) = tested on: YT (IL-2 2.5 ng/mL)
Description: as §1

KHYG-1 (IL-2 2.5 ng/mL) = tested on: KHYG-1 (IL-2 2.5 ng/mL)
Description: as §1

NK-92 (IL-2 2.5 ng/mL) = tested on: NK-92 (IL-2 2.5 ng/mL)
Description: as §1

KAI3 (IL-2 2.5 ng/mL) = tested on: KAI3 (IL-2 2.5 ng/mL)
Description: as §1

Compound	relative IC50 [1] [nM]	relative IC50 [2] [nM]	relative IC50 [3] [nM]	relative IC50 (DERL-7 (IL-2 2.5 ng/mL)) [nM]	relative IC50 (NKL (IL-2 2.5 ng/mL)) [nM]	relative IC50 (IMC-1 (IL-2 20 ng/mL)) [nM]	relative IC50 (NK-YS (IL-2 2.5 ng/mL)) [nM]	relative IC50 (SNK-6 (IL-2 2.5 ng/mL)) [nM]	relative IC50 [4] [nM]	relative IC50 (YT (IL-2 2.5 ng/mL)) [nM]	relative IC50 (KHYG-1 (IL-2 2.5 ng/mL)) [nM]	relative IC50 (NK-92 (IL-2 2.5 ng/mL)) [nM]	relative IC50 (KAI3 (IL-2 2.5 ng/mL)) [nM]
O=C1CN2Cc3c(ccc(Cl)c3Cl)N=C2N1 [Anagrelide]	> 10000												
Cc1cc(C)c(/C=C2\C(=O)Nc3ccccc32)[nH]1 [Semaxanib]	> 10000	> 10000	> 10000	> 10000	> 10000								
C[C@]12CC[C@@H]3c4ccc(OC(=O)N(CCCl)CCCl)cc4CC[C@H]3[C@@H]1CC[C@@H]2O [Estramustine]	> 10000					> 10000							
CC[C@H](NC(=O)[C@H](C)NC)C(=O)N1C[C@@H](O)C[C@H]1Cc1c(-c2[nH]c3cc(F)ccc3c2C[C@@H]2C[C@H](O)CN2C(=O)[C@H](CC)NC(=O)[C@H](C)NC)[nH]c2cc(F)ccc12 [Birinapant]		338	311				> 1000	> 1000	278				
Cc1ccccc1C(C(=O)NC1CCCCC1)N(C(=O)Cn1ccnc1C)c1cccc(F)c1 (centres undefined) [AGI-5198]			> 10000										
C[C@@]1(C(=O)Nc2ccc(F)nc2)CCCN1c1nc(Nc2cc(C3CC3)n[nH]2)c2cccn2n1		3420		290		2850	412	630		904	1150	617	
Cc1sc2c(c1C)C(c1ccc(Cl)cc1)=N[C@@H](CC(=O)OC(C)(C)C)c1nnc(C)n1-2 [(+)JQ1]		1080	546	76.9	113		231	215		238	165		362
CC[C@@]1(O)C(=O)OCc2c1cc1n(c2=O)Cc2cc3ccccc3nc2-1 [Camptothecin]	278			9.21	1.47	14.2	3.56	3.1	547	18.4	4.95	5.92	0.88
C=C1C[C@@H]2[C@H](CC[C@]3(C)C(=O)CC[C@@H]23)[C@@]2(C)C=CC(=O)C=C12 [Exemestane]		3290											
CCN1CCN(Cc2ccc(Nc3ncc(F)c(-c4cc(F)c5nc(C)n(C(C)C)c5c4)n3)nc2)CC1 [Abemaciclib]		> 2500		130		978	446		743		236		
Oc1ccc2c(c1)CC[C@H](c1ccccc1)[C@@H]2c1ccc(OCCN2CCCC2)cc1 [Lasofoxifene]	> 1000				> 1000				> 1000				
Nc1cc(C(F)(F)F)c(-c2cc(N3CCOCC3)nc(N3CCOCC3)n2)cn1 [Buparlisib]				1070	269	3900	520	42.9		1210	781	734	887
CNC(=O)c1cc(Oc2ccc(NC(=O)Nc3ccc(Cl)c(C(F)(F)F)c3)c(F)c2)ccn1 [Regorafenib]		1940	3020	1190	1570		1620	86.7	1750	1660	2130	1040	3360
CCc1cc2c(cc1N1CCC(N3CCOCC3)CC1)C(C)(C)c1[nH]c3cc(C#N)ccc3c1C2=O [Alectinib]	> 1000							> 1000					
COc1cc2nccc(Oc3ccc(NC(=O)Nc4cc(C)on4)c(Cl)c3)c2cc1OC [Tivozanib]		1520		2780			1750	799		1490	1630	319	
CN(C)C1CCN(C(=O)c2ccc(NC(=O)Nc3ccc(-c4nc(N5CCOCC5)nc(N5CCOCC5)n4)cc3)cc2)CC1 [Gedatolisib]				27.4	14.7		32.5	75.6		147			85.9
COc1cc(C(=O)O)ccc1NC(=O)[C@@H]1N[C@@H](CC(C)(C)C)[C@](C#N)(c2ccc(Cl)cc2F)[C@H]1c1cccc(Cl)c1F [RG7388]		29.7	132	97	2450		86.3	30.2		209	3560	2120	39.1
CS(=O)(=O)OCCCCOS(C)(=O)=O [Busulfan]					27300	26900	29600	15800	35600		26600	36400	24600
Nc1nc2[nH]cc(CCc3ccc(C(=O)N[C@@H](CCC(=O)O)C(=O)O)cc3)c2c(=O)[nH]1 [Pemetrexed]	> 10000					146			> 10000				
CNC(=O)c1cccc(-c2ccc3c(N4CCOC[C@@H]4C)nc(N4CCOC[C@@H]4C)nc3n2)c1 [AZD2014]				137	36.7		266	117		295	714	317	24.8
CCn1c(=O)c(-c2cc[nH]n2)cc2c(C)nc(N)nc21 [Voxtalisib]				457	880		1340	3190		1110	1640	685	818
CN1CCN(c2ccc3nc(-c4c(N)c5c(F)cccc5[nH]c4=O)[nH]c3c2)CC1 [Dovitinib]		1860			1900	> 10000		> 10000					
COc1cc2c(Oc3ccc4[nH]c(C)cc4c3F)ncnc2cc1OCCCN1CCCC1 [Cediranib]	> 1000												
C[C@@H]1CCN(C(=O)CC#N)C[C@@H]1N(C)c1ncnc2[nH]ccc12 [Tofacitinib]	204		75	99.5	33.1	616	101	78	95.5	336	41	141	42.3
Cn1cc(-c2ccc3nnc(C(F)(F)c4ccc5ncccc5c4)n3n2)cn1		> 10000											
O=C(O)C1(C(=O)O)CCC1.[NH2-].[NH2-].[Pt+2] [Carboplatin]	16000					8070			16600				
COC1=CC(c2cc3ccccc3[nH]2)=N/C1=C\c1[nH]c(C)cc1C [Obatoclax]		1880			247							449	
COc1cc(C(=O)O)ccc1NC(=O)[C@@H]1N[C@@H](CC(C)(C)C)[C@](C#N)(c2ccc(Cl)cc2F)[C@H]1c1cccc(Cl)c1F [Idasanutlin]	265								197				
N#Cc1ccc(COC[C@H]2O[C@@H](n3c(NCc4ccc(Cl)c(Cl)c4)nc4c(N)ncnc43)[C@H](O)[C@@H]2O)cc1	> 10000					3860	1310	1150		1710	1810		
CCCS(=O)(=O)Nc1ccc(F)c(C(=O)c2c[nH]c3ncc(-c4ccc(Cl)cc4)cc23)c1F [Vemurafenib]				1760	1900		3080	3170		1910	1130	1610	1910
